Measured values from patent publication US12478067B2, “Heterocyclic compound and harmful arthropod pest control composition containing same” (SUMITOMO CHEMICAL COMPANY, LIMITED, priority 2019, dated 2025).

Tests used:
Assay type in all cases: in vivo
[1] = tested on: Western corn rootworms (Diabrotica virgifera virgifera); assay: whole plant or invertebrate; details: 120 h, Test Example 9-1, corn seedling immersed 30 seconds, second instar larvae, after 5 days, 25° C., read-out: mortality of insects
Description: Each 1 mg of the test compounds is dissolved into 50 μL of a mixed solution of polyoxyethylene sorbitan mono-cocoate and acetone (polyoxyethylene sorbitan mono-cocoate:acetone=5:95 (v/v ratio)).
A young entire seedling of Corns (Zea mays) is immersed into the diluted solution for 30 seconds. […] Mortality (%)=(Number of dead insects/10}×100

[2] = tested on: common house mosquito (Culex pipiens pallens); assay: whole plant or invertebrate; details: 24 h, Test Example 8, last instar larvae, after 1 day, 25° C., read-out: mortality of insects
Description: Mortality (%)=(Number of dead insects/Number of tested insects)×100

[3] = tested on: housefly (Musca domestica); assay: Test method 6: filter paper with sucrose bait, housefly female adults; details: Test Example 6, 0.7 ml on filter paper with sucrose bait, after 24 hours, 25° C., read-out: mortality of insects
Description: A filter paper having a diameter of 5.5 cm in diameter is spread on the bottom of the cup, and then 0.7 ml of the diluted solutions are added dropwise to the filter paper and 30 mg of sucrose is uniformly placed on the filter paper as a bait. Ten (10) housefly (Musca domestica) female adults are released into the cup, and the cup is then covered with the lid. […] Mortality (%)=(Number of dead insects/Number of tested insects)×100

[4] = tested on: housefly (Musca domestica); assay: Test method 7: coated container, housefly female adults; details: Test Example 7-1, container coated at 40 mg/m^2 (800 ppm acetone solution), elapsed time 1 hour, 25° C., read-out: mortality of insects
Description: An acetone solution which is adjusted to 800 ppm of the test compound is poured into a container having 20 mL contents, and the test compound is coated uniformly on inner face of the container so as to make 40 mg/m^2 thereof, and the container is then allowed to dry.
Into the container, five (5) housefly (Musca domestica) female adults are released into the container, and the container is then covered with the lid. […] Mortality (%)=(Number of dead insects/Number of tested insects)×100

SMILES: CCSc1c(-n2cnc3cc(C(F)(F)F)ccc3c2=O)nc2ccc(Br)cn12 [Present compound 2-1]
- mortality at 500 ppm [1]: ≥ 80%
- mortality at 3.5 ppm [2]: ≥ 91%

SMILES: CCSc1c(-n2cnc3cc(C(F)(F)F)ccc3c2=O)nc2cc(C(F)(F)F)ccn12 [Present compound 2-15]
- mortality at 500 ppm [3]: ≥ 70%
- mortality at 3.5 ppm [2]: ≥ 91%

SMILES: CCSc1c(-n2nnc3ccc(C(F)(F)F)cc3c2=O)nc2ccc(Br)cn12 [Present compound 4-2]
- mortality at 40 mg/m2 [4]: ≥ 80%
- mortality at 500 ppm [1]: ≥ 80%
- mortality at 3.5 ppm [2]: ≥ 91%
